Measurements: US11413278B2, “Compounds and methods for promoting stress resistance” (priority 2015, dated 2022)
“Also recorded” adds a separate entry of the source. Like-named read-outs stand apart in the source and are kept apart here.

Tests used:
Type in all cases: cell-based, human
WI-38 cells = assay: Propidium iodide (PI) cell-death imaging upon H2O2 stress; conditions: for Assay 7: H2O2-resistant, at 10 uM, validated by propidium iodide (PI) cell-death imaging: w/H2O2, 3 hrs/4 hrs/5 hrs, YES/NO; for cytotoxicity at 10 µM: Homo sapiens, WI-38
FOXO3 = assay: qPCR analysis of FOXO3-regulated genes; conditions: for Induction of at least two of five FOXO3-regulated genes (SOD2, GADD45A, CAT, DDB1, TXNIP): WI-38; for fold induction at 10 µM: Homo sapiens; for K = Sestrin induction: score
Outline: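 WI-38 cells treated with compound at 10 μM for 24 h, followed by Cells-to-Ct RT-qPCR of FOXO3 target genes normalised to B2M, PPIA and GAPDH. FOXO3 or NRF2 dependence tested by prior 10 nM siRNA knockdown (36 h transfection, compound added ~24 h after replating).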

NRF2 = assay: in vitro; conditions: for NRF2-dependency for H2O2-resistance, at 10 uM - with H2O2, 2nd experiment: experiment 2 (2nd); for NRF2-dependency for H2O2-resistance (experiment 3): with & without H2O2, NRF2 knockdown in WI-38 cells; for Assay 17: NRF2-dependency for H2O2-resistance: YES/NO; for NRF2-dependency of H2O2-resistance (NRF2 siRNA knockdown): at least 2 of 3 independent experiments
mTOR = mTOR inhibition (RPS6 phosphorylation status), In-Cell Western
Outline: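 WI-38 cells exposed to compounds at 5, 10 and 20 μM for 24 hrs. Fixed cells co-stained overnight at 4° C with anti-RPS and anti-pRPS6 (Ser-235/236) antibodies, then DyLight 680/800 secondaries. Phospho-RPS6 relative to total RPS6 read by near-infrared In-Cell Western imaging.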

[1] = H2O2 3 hrs, 10 uM, n = 6, negative control 5.44% ± 0.79%, read-out: Percentage of propidium iodide-positive dead cells (under H2O2 stress treatment), 3 hrs
[2] = pre-treatment at 10 uM, 3.5 hours of H2O2, DMSO control 27.4% ± 6.5%, */**/*** = reduced by one/two/three standard deviations, read-out: Percentage of propidium iodide-positive dead cells (under H2O2 stress treatment), at 10 uM
[3] = 24 h, Assay 10(m), at 10 uM, qPCR, read-out: Induction of FOXO3-regulated genes: CAT normalized fold-change
[4] = 24 h, Assay 10(m), at 10 uM, qPCR, read-out: Induction of FOXO3-regulated genes: DDB1 normalized fold-change
[5] = 10 μM, 24 hrs, WI-38 cells, qPCR, normalized to B2M, n = 4, read-out: CAT expression, normalized fold change (FOXO3-regulated gene)
[6] = 10 μM, 24 hrs, WI-38 cells, qPCR, normalized to B2M, n = 4, read-out: DDB1 expression, normalized fold change (FOXO3-regulated gene)
[7] = WI-38 cells, 10 μM, 24 hrs, n=4, qPCR normalized by B2M, read-out: DDB1 Normalized fold change
[8] = WI-38 cells, 10 μM, 24 hrs, n=4, qPCR normalized by B2M, read-out: GADD45A Normalized fold change
[9] = WI-38 cells, 10 μM, 24 hrs, n=4, qPCR normalized by B2M, read-out: SESN1 Normalized fold change
[10] = fold change, qPCR, WI-38 cells, 10 μM, 24 hrs, read-out: Summary of effects on FOXO3-regulated genes: CAT
[11] = fold change, qPCR, WI-38 cells, 10 μM, 24 hrs, read-out: Summary of effects on FOXO3-regulated genes: DDB1
[12] = qPCR, WI-38 cells, 10 μM, n=4, 24 hrs, normalized by B2M, read-out: CAT Normalized fold change
[13] = qPCR, WI-38 cells, 10 μM, n=4, 24 hrs, normalized by B2M, read-out: SOD2 Normalized fold change
[14] = qPCR, WI-38 cells, 10 μM, n=4, 24 hrs, normalized by B2M, read-out: TXNIP Normalized fold change
[15] = 10 uM, YES = resistance reduced by at least 50%, partial = 25% to 50%
[16] = 10 uM, with H2O2, NRF2 knockdown in WI-38 cells, YES = resistance reduced by at least 50%, partial = 25% to 50%

SMILES	Assay 7: H2O2-resistant, at 10 uM, validated by propidium iodide (PI) cell-death imaging (WI-38 cells; 10 uM)	cytotoxicity at 10 µM (WI-38 cells; [1])	cytotoxicity at 10 µM (WI-38 cells; [2])	Induction of at least two of five FOXO3-regulated genes (SOD2, GADD45A, CAT, DDB1, TXNIP) (FOXO3; 10 μM, 24 hrs)	E = Potential FOXO3 Activation (FOXO3; 2-point score)	fold induction at 10 µM (FOXO3; [3])	fold induction at 10 µM (FOXO3; [4])	fold induction at 10 µM (FOXO3; [5])	fold induction at 10 µM (FOXO3; [7])	fold induction at 10 µM (FOXO3; [8])	fold induction at 10 µM (FOXO3; [9])	fold induction at 10 µM (FOXO3; [12])	fold induction at 10 µM (FOXO3; [13])	fold induction at 10 µM (FOXO3; [14])	K = Sestrin induction (FOXO3)	E = Potential FOXO3 Activation (FOXO3; summary score)	J = NRF2-dependency for H2O2-resistance (NRF2; score)	J = NRF2-dependency for H2O2-resistance (NRF2; summary score)	G = mTOR down-regulation (mTOR; 2-point score)	G = mTOR down-regulation (mTOR; summary score)	further results
COC(=O)CCc1sc2c(c1[N+](=O)[O-])NC(=O)CCC2 [O20]	YES	3.28%	9.4%	significant induction; also recorded: significant, induction	0	1.35	1.25	1.35	1.25	1.04	1.73	1.35	1.09	1.12	1	0	1	1	0	0	fold induction at 10 µM (FOXO3; 24 h, Assay 10(m), at 10 uM, qPCR, read-out: Induction of FOXO3-regulated genes: SESN1 normalized fold-change): 1.73; fold induction at 10 µM (FOXO3; WI-38, 24 h, read-out: SESN1 expression): > 1.5; fold induction at 10 µM (FOXO3; [6]): 1.25; fold induction at 10 µM (FOXO3; 10 μM, 24 hrs, WI-38 cells, qPCR, normalized to B2M, n = 4, read-out: SESN1 expression, normalized fold change (FOXO3-regulated gene)): 1.73; fold induction at 10 µM (FOXO3; [10]): 1.35; fold induction at 10 µM (FOXO3; [11]): 1.25; fold induction at 10 µM (FOXO3; fold change, qPCR, WI-38 cells, 10 μM, 24 hrs, read-out: Summary of effects on FOXO3-regulated genes: SESN1): 1.73; NRF2-dependency for H2O2-resistance, at 10 uM - with H2O2, 1st experiment (NRF2; 10 uM, experiment 1 (1st), with H2O2): 1st, YES;; NRF2-dependency for H2O2-resistance, at 10 uM - with H2O2, 2nd experiment (NRF2; 10 uM, with H2O2): 2nd, YES.; NRF2-dependency for H2O2-resistance, at 10 uM (experiment 3) - with & without H2O2 (NRF2; 10 uM): YES; NRF2-dependency for H2O2-resistance (experiment 3) (NRF2; [15]): YES; NRF2-dependency for H2O2-resistance, 1st experiment (NRF2; [16]): YES;; NRF2-dependency for H2O2-resistance, 2nd experiment (NRF2; [16]): YES.; Assay 17: NRF2-dependency for H2O2-resistance (NRF2; 10 uM): YES; Reduction of H2O2-resistance capacity upon NRF2 knockdown, on average (NRF2; 3 of 3 experiments): ~90%; NRF2-dependency of H2O2-resistance (NRF2 siRNA knockdown) (NRF2): significantly attenuate
O=C(/C=C/c1cn(-c2ccccc2)nc1-c1cccnc1)c1ccccc1 [Gr-6B]	YES	2.62%	2.1%		0		1.19		1.19	1.26	1.25	1.11	1.14	0.861	0	0	1	1	0	0	fold induction at 10 µM (FOXO3; [6]): 1.19; fold induction at 10 µM (FOXO3; [11]): 1.19; NRF2-dependency for H2O2-resistance, at 10 uM - with H2O2, 2nd experiment (NRF2; 10 uM, with H2O2): 2nd, partial.; NRF2-dependency for H2O2-resistance, at 10 uM (experiment 3) - with & without H2O2 (NRF2; 10 uM): YES; NRF2-dependency for H2O2-resistance (experiment 3) (NRF2; [15]): YES; NRF2-dependency for H2O2-resistance, 2nd experiment (NRF2; [16]): partial.; Assay 17: NRF2-dependency for H2O2-resistance (NRF2; 10 uM): YES; NRF2-dependency of H2O2-resistance (NRF2 siRNA knockdown) (NRF2): significantly attenuate
CCCC(=O)Nc1ccc(-c2cn3cccc(C)c3n2)cc1 [O12]	YES	0.74%	0.4%	significant induction	2	0.82	0.86	0.8	1.02	1.69	1.05	0.802	1.52	0.909	0	0	0	0	0	0	cytotoxicity at 10 µM (WI-38 cells; H2O2 4 hrs, 10 uM, n = 6, negative control 16.81% ± 1.42%, read-out: Percentage of propidium iodide-positive dead cells (under H2O2 stress treatment), 4 hrs): 0.77%; cytotoxicity at 10 µM (WI-38 cells; H2O2 5 hrs, 10 uM, n = 6, negative control 22.50% ± 1.53%, read-out: Percentage of propidium iodide-positive dead cells (under H2O2 stress treatment), 5 hrs): 1.33%; SOD2 expression, normalized fold change (FOXO3-regulated gene) (FOXO3; 10 μM, 24 hrs, WI-38 cells, qPCR, normalized to B2M, n = 4): SOD2 1.52, fold; fold induction at 10 µM (FOXO3; 24 h, Assay 10(m), at 10 uM, qPCR, read-out: Induction of FOXO3-regulated genes: GADD45A normalized fold-change): 1.44; fold induction at 10 µM (FOXO3; 24 h, Assay 10(m), at 10 uM, qPCR, read-out: Induction of FOXO3-regulated genes: SOD2 normalized fold-change): 1.35; fold induction at 10 µM (FOXO3; 10 μM, 24 hrs, WI-38 cells, qPCR, normalized to B2M, n = 4, read-out: GADD45A expression, normalized fold change (FOXO3-regulated gene)): 1.69; fold induction at 10 µM (FOXO3; [10]): 0.8; fold induction at 10 µM (FOXO3; fold change, qPCR, WI-38 cells, 10 μM, 24 hrs, read-out: Summary of effects on FOXO3-regulated genes: GADD45A): 1.69; Summary of effects on FOXO3-regulated genes: SOD2 (FOXO3; fold change, qPCR, WI-38 cells, 10 μM, 24 hrs): SOD2 1.52,
